Experimental data taken from patent US11779567B2, “Method for optimizing 5-hydroxytryptamine function in the brain for therapeutic purposes” (Evecxia Therapeutics, Inc., priority 2021, dated 2023).
Values joined by “and” are separate entries in the source; they are usually repeats but may differ in a detail not shown here. Equal values may be shown once.

Assay: Safety and tolerability of IV 5-HTP continuous infusion
Format: in vivo, human
Procedure: Methods: Safety and tolerability of the IV 5-HTP continuous infusion were assessed during the 24 hr administration of IV 5-HTP infusion (see Example 5) or placebo and approximately 24 hr after end of the infusion. Safety and tolerability of the IV 5-HTP infusion were assessed by monitoring of adverse events (AEs), standard clinical safety laboratory tests, electrocardiograms (ECG), vital signs, and clinical scales of suicidality. The safety population included all subjects. Vital sign measurements included systolic blood pressure (mmHg), diastolic blood pressure (mmHg), heart rate (beats/min), respiratory rate (breaths/min), and oral temperature. Twelve-lead electrocardiogram measurements were performed in triplicate. The recorded parameters included heart rate (beats/min), PR (msec), QRS (msec), and QTcF (msec). Assessments were rated as normal, not clinically significant, or clinically significant. Clinical laboratory tests included a complete blood count, chemistry panel, coagulation panel, and thyroid stimulating hormone.
Statistics: Descriptive statistics (n, mean, SD, minimum, and maximum) for absolute values and changes from baseline were calculated.

[1] = 2 mg/kg/24 hr ramp rate infusion
[2] = ramp flow rate, 1 mg/kg/24 hr, subjects with event/subjects

With `N[C@@H](Cc1c[nH]c2ccc(O)cc12)C(=O)O` [5-HTP, 5-hydroxytryptophan] the “subjects in whom AEs occurred” value (1 mg/kg/24 hr, ramp flow rate infusion) was 2 subjects, the “mild AEs: chills, subjects with event” value [1] was 1 and 1/6 and the “mild AEs: dizziness, subjects with event” value [1] was 1 and 1/6. The “5-HTP plasma exposure with which incidence of AEs was more commonly associated” value (all cohorts) was over 100 ng/mL, the “severity of all AEs” value (all cohorts) was “mild-to-moderate” and the “safety findings in clinical safety laboratory tests, vital signs, 12-lead electrocardiograms” value (all cohorts, 24 hr IV 5-HTP infusion) was “no safety findings”. For the same compound, the “serious or severe AEs related to the IV 5-HTP infusion” value (any subjects, all cohorts) was “No serious or severe AEs”, the AEs (constant flow rate, 1 mg/kg/24 hr group) was “no AEs” and the concentration at 1 h (human, plasma, intravenous, constant rate 3 mg/kg/24 hr, read-out: plasma 5-HTP levels within 1 h in the subjects who discontinued) was 250 to 300 ng/mL. The “5-HTP plasma levels associated with manifestation of AEs” value (ramp flow rate 1 mg/kg/24 hr, at highest flow rate 55.55 ml/h) was 112 to 266 ng/mL, the “mild AEs: nausea” value [2] was 1/5 and the “mild AEs: vomiting” value [2] was 1/5. The “moderate AEs: nausea” value [2] was 1/5 and the “moderate AEs: vomiting” value [2] was 1/5.
